Results reported in patent publication US20170239323A1, “ORITAVANCIN FORMULATIONS” (The Medicines Company, priority 2016, published 2017).

Experiment: Reconstitution of Orbactiv 400 mg vial with aqueous HPCD: time to dissolve, pH and visual observation on storage
Type: physicochemical
Details: for visible precipitation: over 24 hours; for time to go into solution (clear, colorless solution): 57.14 mg/mL; for pH: oritavancin 50 mg/mL
Method: Reconstituting Orbactiv 400 mg (Oritavancin) with 50% HPCD. 5.915 g of HPCD was dissolved in 11.83 mL of water to make a 50 wt % aqueous solution. 8 mL of the 50% HPCD solution was added to a 400 mg vial of Orbactiv for a target oritavancin concentration of 50 mg/mL. […] The pH was measured and the solution was stored at room temperature, protected from light, and observed over 24 hours for signs of precipitation (Table 1).
Reconstituting Orbactiv 400 mg (Oritavancin) in 20% w/v HPCD aqueous solution. 3.095 g HPCD was dissolved in 15.474 mL water to make a 20% w/v solution (pH=6.05). 8 mL of the 20% w/v HPCD solution was added to a 400 mg vial of Orbactiv for a target oritavancin concentration of 50 mg/mL. […] The pH was measured and the solution was stored at room temperature, protected from light, and observed over 24 hours for signs of precipitation (Table 3).
Reconstituting Orbactiv 400 mg (Oritavancin) in 50% w/v HPCD aqueous solution, adjusting pH then diluting in saline. 6.269 g of HPCD was dissolved in 12.538 mL of water to make a 50% w/v solution (pH=7.23). Seven (7) mL of the 50% w/v solution was added to a 400 mg vial of Orbactiv for a target oritavancin concentration of 57.14 mg/mL. […] A 2 mL aliquot of 57.14 mg/mL was removed from the vial and placed in a small glass vial. The pH was adjusted to 6.5 using 1N NaOH. NaOH was added to the oritavancin solution in 5 μL increments and vortexed. Visual observations and pH were recorded (Table 6).
(§1) Reconstituting Orbactiv 400 mg (Oritavancin) in 50% w/v aqueous HPCD, adjusting pH then diluting in saline. 6.112 g of HPCD was dissolved in 12.224 mL of water to make a 50% w/v solution (pH=6.74). Seven (7) mL of the 50% w/v HPCD solution was added to a 400 mg vial of Orbactiv for a target oritavancin concentration of 57.14 mg/mL. […] A 3 mL aliquot of 57.14 mg/mL was removed from the vial and placed in a small glass vial. The pH was adjusted to 7 using 1N NaOH. NaOH was added to the oritavancin solution in 5 μL increments and vortexed. Visual observations and pH were recorded (Table 8).
as §1, with “20%” for “50%”, “3.555” for “6.112”, “17.775” for “12.224”, “(pH=6.88).” for “(pH=6.74).”, “recorded.” for “recorded”, “10).” for “8).”
Reconstituting Orbactiv 400 mg (Oritavancin) in 20% w/v aqueous HPCD then diluting in Hank's Balanced Salt Solution (HBSS). 2.641 g of HPCD was dissolved in 13.205 mL of water to make a 20% w/v solution (pH=6.70). Eight (8) mL of the 20% w/v solution was added to a 400 mg vial of Orbactiv for a target oritavancin concentration of 50 mg/mL. […] A 1.5 mL aliquot of 50 mg/mL was removed from the vial and placed in a small glass vial and pH measured. Diluted 2 mL of 50 mg/mL oritavancin solution in 8 mL of HBSS. Visual observations and pH were recorded. (Table 12).

## CN[C@H](CC(C)C)C(=O)N[C@H]1C(=O)N[C@@H](CC(N)=O)C(=O)N[C@H]2C(=O)N[C@H]3C(=O)N[C@H](C(=O)N[C@H](C(=O)O)c4cc(O)cc(O)c4-c4cc3ccc4O)[C@H](O[C@H]3C[C@](C)(N)[C@@H](O)[C@H](C)O3)c3ccc(c(Cl)c3)Oc3cc2cc(c3O[C@@H]2O[C@H](CO)[C@@H](O)[C@H](O)[C@H]2O[C@H]2C[C@](C)(NCc3ccc(-c4ccc(Cl)cc4)cc3)[C@@H](O)[C@H](C)O2)Oc2ccc(cc2Cl)[C@H]1O [Oritavancin]
50 mg/mL in 20% w/v HPCD solution
  visible precipitation: did not show any sign of visible precipitation
50 mg/mL in 50% HPCD aqueous solution
  visible precipitation: did not show any sign of visible precipitation
400 mg vial + 7 mL 20% w/v HPCD solution
  time to go into solution (clear, colorless solution): ≤ 5 min
400 mg vial + 7 mL 20% w/v HPCD solution, listed as Orbactiv
  time to go into solution (clear, colorless solution): 5 min
400 mg vial + 7 mL 50% w/v HPCD solution
  time to go into solution (clear, colorless solution): ≤ 5 min
400 mg vial + 7 mL 50% w/v HPCD solution, listed as Orbactiv
  time to go into solution (clear, colorless solution): 5 min
Reconstituted with 20% w/v aqueous HPCD, RT, 0 hr
  pH: 3.85
Reconstituted with 20% w/v aqueous HPCD, RT, 24 hr
  pH: 4.17
Reconstituted with 50% w/v HPCD in water, 0 hr
  pH: 3.94
